Reference: publication PMC12655351, “Synthesis and Anticancer Activity Evaluation of New 5-((5-Nitrofuran-2-yl)allylidene)-2-thioxo-4-thiazolidinones” (Pharmaceuticals, 2025)

Experiments:
OVCAR-4 = assay: cells; details: Homo sapiens, OVCAR-4, 48 h
Leukemia = Leukemia subpanel
K-562 [1] = assay: cells; details: Homo sapiens, K562, 48 h
Ovarian cancer = assay: cells; details: Homo sapiens
CAKI-1 = assay: cells; details: Homo sapiens, CAKI-1, 48 h
NCI-H266 = assay: NCI-60 SRB screen
UACC-62 = assay: NCI-60 SRB screen; details: UACC-62, 48 h
HCC-2998 = assay: cells; details: Homo sapiens, HCC 2998, 48 h
SF-268 = details: SF-268, 48 h
MCF7 = assay: NCI-60 SRB screen; details: MCF7, 48 h
BT-549 = assay: cells; details: Homo sapiens, BT-549, 48 h
HCT-116 = details: HCT-116, 48 h
PC-3 = assay: cells; details: Homo sapiens, PC-3, 48 h
MDA-MB-468 = assay: NCI-60 SRB screen; details: MDA-MB-468, 48 h
NCI-H522 = assay: NCI-60 SRB screen
A549/ATCC = assay: NCI-60 SRB screen
CNS cancer = CNS cancer subpanel
K-562 [2] = details: K-562, 48 h
Renal Cancer = assay: cells; details: Homo sapiens
NCI-H23 = assay: cells; details: Homo sapiens, NCI-H23, 48 h
Melanoma = assay: cells; details: Homo sapiens
IGROV1 = assay: NCI-60 SRB screen
OVCAR-8 = details: OVCAR-8, 48 h
SK-OV-3 [3] = details: SK-OV-3, 48 h
COLO 205 = details: COLO 205, 48 h
SK-MEL-28 = details: SK-MEL-28, 48 h
DU-145 = assay: cells; details: Homo sapiens, DU-145, 48 h
UO-31 = assay: cells; details: Homo sapiens, UO-31, 48 h
KM12 = assay: NCI-60 SRB screen; details: KM12, 48 h
A498 = details: A498, 48 h
RPMI-8226 = assay: cells; details: Homo sapiens, RPMI-8226, 48 h
SK-OV-3 [4] = assay: cells; details: Homo sapiens, SK-OV-3, 48 h

In the case of `O=C(O)C(c1ccccc1)N1C(=O)/C(=C/C=C/c2ccc([N+](=O)[O-])o2)SC1=S` (stereo not drawn) [9b, 2-((Z)-5-((E)-3-(5-Nitrofuran-2-yl)allylidene)-4-oxo-2-thioxothiazolidin-3-yl)-2-phenylacetic acid], the GI50 (OVCAR-4) is reported as 13.9 µM, the CC50 (OVCAR-4; read-out: LC50, OVCAR-4, 48 h) is reported as 56.1 µM and the “MG_MID TGI” value (Leukemia) is reported as 24.2 µM. For the same compound, the GI50 (K-562 [1]; K-562, 48 h) was 3.45 µM, the CC50 (K-562 [1]; read-out: LC50) was greater than 100 µM and the GI50 (Ovarian cancer; read-out: MG_MID GI50) was 13 µM. The CC50 (Ovarian cancer; read-out: MG_MID LC50) was 60.3 µM, the GI50 (CAKI-1) was 6.27 µM and the GI50 (NCI-H266; Homo sapiens, 48 h, NCI-H266, 48 h) was 12.2 µM. The CC50 (NCI-H266; Homo sapiens, 48 h, read-out: LC50, NCI-H266, 48 h) was 89.7 µM, the TGI (NCI-H266; NCI-H266, 48 h) was 33.1 µM and the GI50 (UACC-62; Homo sapiens) was 2.69 µM. It also gave a CC50 (UACC-62; Homo sapiens, read-out: LC50, UACC-62, 48 h) of 35.3 µM, a TGI (UACC-62) of 11.1 µM and a GI50 (HCC-2998) of 15.6 µM. It also gave a TGI (SF-268) of 23.7 µM, a GI50 (MCF7; Homo sapiens) of 3.67 µM and a TGI (MCF7) of 16.5 µM. The GI50 (BT-549) was 2.46 µM, the CC50 (BT-549; read-out: LC50, BT-549, 48 h) was 35.7 µM and the TGI (HCT-116) was 8.14 µM. The GI50 (PC-3) was 13.5 µM, the GI50 (MDA-MB-468; Homo sapiens) was 2.74 µM and the CC50 (MDA-MB-468; Homo sapiens, read-out: LC50, MDA-MB-468, 48 h) was 45.6 µM. It also gave a TGI (MDA-MB-468) of 10.4 µM, a GI50 (NCI-H522; Homo sapiens, NCI-H522, 48 h) of 4.09 µM and a CC50 (NCI-H522; Homo sapiens, NCI-H522, 48 h, read-out: LC50, NCI-H522, 48 h) of 64.6 µM. For the same compound, the “growth GP” value (NCI-H522; NCI-H522, 10 μM, 48 h) was -88.21%, the TGI (NCI-H522; NCI-H522, 48 h) was 19.1 µM and the TGI (A549/ATCC; 48 h) was 47.0 µM. For the same compound, the GI50 (A549/ATCC; Homo sapiens, A549, 48 h) was 16.8 µM, the “MG_MID TGI” value (CNS cancer) was 21.7 µM and the TGI (K-562 [2]) was 19.3 µM. The GI50 (Renal Cancer; read-out: MG_MID GI50) was 9.53 µM, the CC50 (Renal Cancer; read-out: MG_MID LC50) was 50.7 µM and the GI50 (NCI-H23) was 14.4 µM. The CC50 (NCI-H23; read-out: LC50, NCI-H23, 48 h) was 66.9 µM, the GI50 (Melanoma; read-out: MG_MID GI50) was 7.49 µM and the CC50 (Melanoma; read-out: MG_MID LC50) was 48.9 µM. The GI50 (IGROV1; Homo sapiens, IGROV-1, 48 h, IGROV1, 48 h) was 14.3 µM, the CC50 (IGROV1; Homo sapiens, IGROV-1, 48 h, read-out: LC50, IGROV1, 48 h) was 66.6 µM and the TGI (IGROV1; IGROV1, 48 h) was 30.8 µM. The TGI (OVCAR-8) was 25.5 µM, the TGI (SK-OV-3 [3]) was 29.9 µM and the TGI (COLO 205) was 22.2 µM. The TGI (SK-MEL-28) was 23.4 µM, the GI50 (DU-145) was 11.5 µM and the CC50 (DU-145; read-out: LC50, DU-145, 48 h) was 48.8 µM. For the same compound, the GI50 (UO-31) was 10.8 µM, the CC50 (UO-31; read-out: LC50, UO-31, 48 h) was 50.7 µM and the GI50 (KM12; Homo sapiens) was 6.66 µM. The TGI (KM12) was 20.6 µM, the TGI (A498) was 36.5 µM and the GI50 (RPMI-8226) was 3.19 µM. For the same compound, the CC50 (RPMI-8226; read-out: LC50) was greater than 100 µM, the GI50 (SK-OV-3 [4]) was 15.9 µM and the CC50 (SK-OV-3 [4]; read-out: LC50, SK-OV-3, 48 h) was 56.3 µM.
